# Entries after “also recorded” stand apart in the source; their conditions may differ.
# Legend:
# TGFβ-1 promoter = test: CAT reporter expression, TGFβ-1 promoter (phTG12), MG63 cells cotransfected with pRSVER
# Description: (§3) Co-transfection experiments were performed in MG63 (human osteosarcoma) cells, using the ProFection Mammalian Transfection System (Promega). […] The cells were then refed with fresh 3:1 media containing 10% csFBS. Compounds to be evaluated for their ability to modulate reporter gene expression were added at the appropriate times and assayed as described below.
# (§4) Cultures of MG63 cells were transiently co-transfected with pRSVER plasmid and either phTG12, pTGF-1, or pB2-499 using the ProFection system (Promega). For each transfected cell culture, DNA-containing calcium phosphate precipitates were added dropwise to each culture dish and mixed thoroughly in the media. The pH of the media was carefully maintained between pH 7.2 and pH 7.4. Transfected cell cultures were then incubated overnight in a 5% CO2 atmosphere at 37° C. For all cultures, the precipitate was removed after overnight incubation by aspirating the media from the culture dishes, followed by rinsing each dish twice with D-PBS. For each cotransfected cell line, the buffer was replaced with 10 ml fresh medium containing 10% csFBS and one of the following compositions:
# (§5) a. 10 μl ethanol (hormone vehicle)=control;
# (§6) b. 10 μl 17β-estradiol (Sigma) ("estradiol") at a concentration of 10^-4 M in ethanol;
# (§7) d. 10 μl Tamoxifen (Sigma) at a concentration of 10^-4 M in ethanol.
# (§8) After 24 h incubation with these hormonal preparations (or the vehicle control), cells were washed twice with D-PBS. The cells were then scraped from the culture dishes using a rubber policeman and 1 ml of D-PBS. Cells were collected by centrifugation at 8,000 rpm for 2 minutes in a tabletop centrifuge (MicroMax Model, IEC, Newark, N.Y.). The supernatant was removed and the cell pellets were resuspended in 150 μL of a 0.25M Tris-HCl solution (pH 7.8). Cells were lysed by three cycles of freezing in a dry ice/ethanol bath and thawing in a water bath at 37° C. water bath (for 3 minutes each cycle). Lysed cell preparations were centrifuged at 15,000 rpm for 5 minutes at 4° C. to remove cell debris. Supernatants containing the soluble cell lysate were transferred to a new set of tubes for assaying chloramphenicol acetyltransferase (CAT) activity.
# Before performing CAT assays on such cell lysates, the protein content of each lysate was first determined using a commercially-available assay (BioRad Laboratories, Richmond, Calif.). An amount of each cell lysate containing 100 μg total protein was then mixed with CAT assay buffer (0.4M Tris-HCl (pH 7.8)/ 0.5 mM acetyl-CoA (Boehringer Mannheim)/ 0.1 μCi D-threo-(dichloroacetyl-1,2-[^14 C]-chloramphenicol) for 15 hours. After this incubation, reactions were stopped by vigorously extracting the reaction mixture with 900 μL ethyl acetate. The organic and aqueous phases were separated by brief centrifugation at 14,000 rpm for 1 minute, and approximately 800 μL of the organic phase was transferred to a new set of tubes. Ethyl acetate was evaporated to concentrate the CAT-catalyzed reaction products.
# Acetylated and unacetylated chloramphenicol species were resolved by thin layer chromatography using a mixture of 95:5 (v/v) chloroform:methanol as the ascending buffer.
# TGFβ-1 mRNA = details: HEC-50, 1% ctFBS; cited from earlier work
# [1] = test system: estrogen responsive elements; details: in vitro; cited from earlier work
# TGFβ-2 promoter = test: CAT reporter expression, TGFβ-2 promoter (pTGF-1), MG63 cells cotransfected with pRSVER; details: TGFβ-2 promoter
# Description: as §3, §4, §5, §6, §7, §8
# (§9) Before performing CAT assays on such cell lysates, the protein content of each lysate was first determined using a commercially-available assay (BioRad Laboratories, Richmond, Calif.). […]
# [2] = animal models and humans; cited from earlier work
# [3] = test system: estrogen responsive element (ERE) of the vitellogenin promoter; test: Luciferase reporter induction, pGL2ERELUC (vitellogenin ERE) and pRSVER in MG63 cells; format: cell-based, human; details: for reporter gene expression, pGL2ERELUC: control 1.7
# Excerpt: Complementary oligonucleotides corresponding to the estrogen-responsive element (ERE) from the Xenopus laevis vitellogenin Az gene promoter (corresponding to positions -341 to -310; Metzger et al., 1988, Nature 334: 31-36) were designed, synthesized and annealed to form a double-stranded region that is an estrogen responsive element essentially as described in Example I. A sequence comprising an XhoI restriction enzyme recognition site was synthesized to be flanking the ERE sequences, the element having the following nucleotide sequence (shown as SEQ ID NOS:8 and 9, respectively):
# The double-stranded ERE was subcloned into XhoI-digested […] (Promega) whereby the luciferase gene was placed under the transcriptional influence of the ERE. This plasmid was designated pGL2ERELUC and used in further experiments as described below (Example VI).
# Similar assays were performed using cultures of MG63 cells transiently transfected with pGL2ERELUC and pRSVER.
# (§1) Transfected cells were treated with varying amounts and combinations of hormones and then rinsed twice with D-PBS. Cells were then lysed upon incubation with 250 μL of eukaryotic cell lysis reagent (as described in Example VI) at 4° C. for 20 min and transferred to microcentrifuge tubes by scraping with a rubber policeman. Cell lysates were centrifuged at 14,000 rpm for 1 minute to remove cell debris. Cell extracts (supernatant) were then assayed for protein content and luciferase activities.
# (§2) Luciferase assays were performed as follows. 50 μL of each cell extract was added to 100 μL of reagent A buffer (containing 4.0 mM ATP/15 mM MgSO4 / 30 mM tricine buffer (pH 7.8)/ 10 mM DTT) in individual wells of a microtiter plate. 100 μL of 1 mM D(-)-luciferin (in 0.1M KPO4 (pH 7.8); Boehringer Mannheim) were added to each well and the amount of light produced measured by using a ML3000 microtiter plate luminometer (under conditions of integrate flash mode, high gain, integrate window=10 seconds, at a temperature of 22° C.). Luciferase activities were calculated as total light output relative to protein content in each cell lysate sample.
# TGFβ-3 promoter [4] = test: Reporter induction, pB-301 (TGFβ-3 promoter) and pRSVER in MG63 cells; format: cell-based, human; details: control 0.7
# Description: These assays were performed essentially as in Example V.
# as §1, §2
# TGFβ-3 promoter [5] = test: TGFβ-3 promoter transcription in RL59.2, HeLa and COS-1 cells; format: cell-based, human; details: RL59.2, HeLa and COS-1 (monkey kidney) cells
# Description: Similar assays were performed in human endometrial cancer cells (RL59.2), human cervical cancer cells (HeLa) and monkey kidney cells (COS-1) (American Type Culture Collection, Rockville, Md.).
# LDL receptor promoter = test: LDLR-Luc production in presence of ER (pLDLRLUC10 and pRSVER, HepG2 cells); format: cell-based, human; details: listed as estrogen
# Excerpt: A 1546 base pair sequence of the human LDL receptor promoter was amplified using the polymerase chain reaction. A reaction mixture containing 20 picomoles each of the synthetic oligonucleotides:
# The 1546 base pair fragment described above was isolated and cloned into the vector pSv2 containing firefly luciferase reporter gene that had been restriction enzyme digested to completion with NdeI and partially with HindIII. The resulting vector, pLDLRLUC10 contains the human LDL receptor promoter directing expression of the firefly luciferase gene, an ampicillin resistance marker and an origin of replication.
# ATCC strain HepG2 cells were co-transfected with pLDLRLUC10 and pRSVER as described in Example IV.
# TGFβ-3 promoter [6] = test: CAT reporter expression, TGFβ-3 promoter (pB-499), MG63 cells cotransfected with pRSVER
# Description: as §3, §4, §5, §6, §7, §8, §9
# TGFβ-3 promoter [7] = test: TGFβ-3 activation in CHO cells (pB-301 and pRSVER, CAT); format: cell-based, hamster; details: 24 h, 0 M 10.6
# Description: Hormones were dissolved in ethanol and applied to the cultures in media as described above.
# TGFβ-2 mRNA = details: T-47D and MDA-MB-231; cited from earlier work
# TGFβ-3 promoter [8] = test: TGFβ-3 activation in MCF-7 cells (pTGFβ-301LUC, luciferase); format: cell-based, human; details: 24 h, 0 M 7.8
# Description: Cultures of MCF-7 cells were transiently transfected with pTGFβ-301LUCas described in Example IV.
# After 24 hours of treatment with the hormonal preparation (or the vehicle control), the cells were washed, harvested, lysed and assayed for LUC activity according to the method of Example VI.
# TGFβ-3 promoter [9] = test: ER dependent induction of TGFβ-3 promoter (pB2-499) in MG63 cells; format: cell-based, human
# Excerpt: It was known in the prior art that the ability of both estrogens and antiestrogens to influence TGFβ production is dependent on the expression of estrogen receptor (ER), but the level at which this influence is exerted was not known (i.e. transcriptional, translational or post-translational). A series of experiments were therefore performed to investigate the putative dependence on ER expression of induction of reporter gene expression using the TGFβ promoter-containing constructs of the invention.
# Cultures of MG63 were prepared for co-transfection as in Example IV. One such culture was co-transfected with pB2-499 and pRSVER and another was co-transfected with pB2499 and pRSV vector plasmid (as a control).
# (b) 17β-estradiol (10^-7 M)
# [10] = Homo sapiens, MG-63, 24 h, read-out: Fold Ind.
smiles,measurement,setting,value
"C[C@]12CC[C@@H]3c4ccc(O)cc4CC[C@H]3[C@@H]1CC[C@@H]2O [estradiol, 17β-estradiol]",fold induction at 0.1 µM,TGFβ-1 promoter; [10],0.7
same,Act. (relative CAT activity),"TGFβ-1 promoter; TGFβ-1 promoter, 10 μl of 10^-4 M in 10 ml medium, 24 h, control […]",4.7
same,response of the TGFβ-1 promoter region (in words),TGFβ-1 promoter; positions -1032 to +727,no response
same,TGFβ-1 mRNA concentration (in words),TGFβ-1 mRNA,Decreased concentrations of TGFβ-1 mRNA
same,binding of estrogen receptor complex to estrogen responsive elements (in words),[1],bind in vitro to DNA binding domains called estrogen responsive elements
same,Act. (relative CAT activity),"TGFβ-2 promoter; 10 μl of 10^-4 M in 10 ml medium, 24 h, control 0.8",1.29
same,Fold Ind.,"TGFβ-2 promoter; comparison with control, 1440 min, 0.1 µM",1.6 fold
same,serum lipid lowering effect (in words),[2],serum lipid lowering effect
same,induction of vitellogenin gene transcription (in words),[3],strongly induced
same,"reporter gene expression, pGL2ERELUC",[3]; 10^-5 M,6.5
same,"reporter gene expression, pGL2ERELUC",[3]; 10^-6 M,6.2
same,"reporter gene expression, pGL2ERELUC",[3]; 10^-7 M,5.9
same,"reporter gene expression, pGL2ERELUC",[3]; 10^-8 M,5.5
same,"reporter gene expression, pGL2ERELUC",[3]; 10^-9 M,5.8
same,"reporter gene expression, pB-301",TGFβ-3 promoter [4]; 10^-5 M,8.0
same,"reporter gene expression, pB-301",TGFβ-3 promoter [4]; 10^-6 M,5.2
same,"reporter gene expression, pB-301",TGFβ-3 promoter [4]; 10^-7 M,5.5
same,"reporter gene expression, pB-301",TGFβ-3 promoter [4]; 10^-8 M,3.2
same,"reporter gene expression, pB-301",TGFβ-3 promoter [4]; 10^-9 M,1.1
same,transcription initiated by the TGFβ-3 promoter (in words),TGFβ-3 promoter [5],induced
same,induction of LDL receptor promoter/expression (in words),LDL receptor promoter,mediated by ER; also recorded: have the ability to induce LDL receptor expression
same,fold induction at 0.1 µM,TGFβ-3 promoter [6]; [10],2.8
same,Act. (relative CAT activity),"TGFβ-3 promoter [6]; TGFβ-3 promoter, 10 μl of 10^-4 M in 10 ml medium, 24 h, control 0.7",2.1
same,CAT activity,TGFβ-3 promoter [7]; 10^-5 M,33.3
same,CAT activity,TGFβ-3 promoter [7]; 10^-6 M,32.9
same,CAT activity,TGFβ-3 promoter [7]; 10^-7 M,29.4
same,CAT activity,TGFβ-3 promoter [7]; 10^-8 M,22.6
same,CAT activity,TGFβ-3 promoter [7]; 10^-9 M,11.9
same,TGFβ-2 mRNA expression (in words),TGFβ-2 mRNA,reduced TGFβ-2 mRNA expression
same,Luciferase activity,TGFβ-3 promoter [8]; 10^-5 M,122 thousands of units
same,Luciferase activity,TGFβ-3 promoter [8]; 10^-6 M,101.3 thousands of units
same,Luciferase activity,TGFβ-3 promoter [8]; 10^-7 M,107.3 thousands of units
same,Luciferase activity,TGFβ-3 promoter [8]; 10^-8 M,9.1 thousands of units
same,Luciferase activity,TGFβ-3 promoter [8]; 10^-9 M,19.2 thousands of units
same,effect of lack of ER expression (in words),TGFβ-3 promoter [9]; lack of ER expression,virtually abolishes expression of TGFβ-3
same,"reporter gene expression, Control Plasmid","TGFβ-3 promoter [9]; no ER (pRSV vector), estradiol 10^-7 M, raloxifene 2×10^-6 M, vehicle 0.9",1.0
same,"reporter gene expression, ER Expression Plasmid","TGFβ-3 promoter [9]; pRSVER, estradiol 10^-7 M, raloxifene 2×10^-6 M, vehicle 1.3",4.6

# Reference: patent US5445941A, “Method for screening anti-osteoporosis agents” (Eli Lilly and Company, priority 1993, dated 1995)
